The results in this text go back to paper PMC8126654, “Novel Pan-Pim Kinase Inhibitors With Imidazopyridazine and Thiazolidinedione Structure Exert Potent Antitumor Activities” (Frontiers in Pharmacology, 2021).

Experiment [1] deals with T1, Pim-1 (Homo sapiens, UniProt P11309).
T1 construct: purchased Life Technologies; Thermo Fisher Scientific Inc
The experiment in a line: Binding detection based on SPR platform (BIACORE T200). Particulars: 6.5, 13, 25, or 50 µM. Here is the method: The interactions between test compounds and Pim-1 were detected by surface plasmon resonance platform BIACORE T200 (GE Healthcare Life Sciences, Buckinghamshire, England). Pim-1 was diluted to 20 μg/ml in 10 mM acetate buffer (pH 5.0), and then immobilized as a ligand in the N-hydroxysuccinimide/ethyl 3-(3-dimethylaminopropyl) carbodiimide-pre-activated CM5 sensor chip, following blocking by ethanolamine. Test compounds were diluted at 6.5, 13, 25, or 50 µM in a vehicle of 5% DMSO (v/v) in phosphate buffered saline (PBS). The dilutions were injected as analyte flow liquid phase with PBS containing 5% DMSO (v/v) as running buffer at a constant flow rate of 30 μL/min. A 2-min association time was set. The data were collected by Biacore Control Software. Kinetics and affinity parameters were evaluated with the Langmuir model (1:1) using BIA evaluation software.
In general terms: SPR reads the build-up and loss of mass on a sensor chip optically.

Experiment [2] deals with Pim-1, 2, and 3. The experiment in a line: Kinetic assay (Lineweaver-Burk analysis). In kind it is biochemical. The method, then:
Enzyme kinetic experiments were performed at pH 7.5 in 50 mM HEPES buffer with 1 mM EGTA, 10 mM MgCl2, and 0.01% Brij-35. […] Plates were immediately placed into a Caliper LabChip EZ Reader II (PerkinElmer Inc.) and wells were sampled periodically throughout an 1-hour reaction period for initial reaction rate. The fluorescent product and substrate were separated and monitored on a Caliper microfluidic instrument. The conversion of substrate was calculated with Caliper software. Ki values were determined from the double reciprocal Lineweaver-Burk plot.

Experiment [3] relates to PC-3. The experiment in a line: Cell cycle analysis, PC-3. The experiment is classed as cell-based. Particulars: 24 h (DMSO 41%). The source says: After treatment, cells were fixed and stained with propidium iodide using the Cell Cycle Phase Determination kit (Cayman Chemical, Ann Arbor, MI, United States) and analyzed by Guava EasyCyteTM Plus System (Merck Millipore).

T1 sequence (P11309 whole entry): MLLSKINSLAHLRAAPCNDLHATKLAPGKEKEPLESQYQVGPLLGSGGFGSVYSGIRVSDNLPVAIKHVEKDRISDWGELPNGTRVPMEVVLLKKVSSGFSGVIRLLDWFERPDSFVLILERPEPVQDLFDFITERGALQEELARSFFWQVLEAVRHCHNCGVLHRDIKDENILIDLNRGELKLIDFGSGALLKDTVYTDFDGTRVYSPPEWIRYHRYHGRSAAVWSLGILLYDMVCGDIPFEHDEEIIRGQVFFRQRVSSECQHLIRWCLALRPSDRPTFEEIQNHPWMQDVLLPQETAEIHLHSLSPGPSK

For the compound `CN1CCN(c2ccc(-c3cnc4ccc(/C=C5\SC(=O)NC5=O)nn34)cc2)CC1` [YPC-21440, (Z)-5-([3-{4-(4-methylpiperazin-1-yl)phenyl}imidazo[1,2-b]pyridazin-6-yl]methylene)thiazolidine-2,4-dione], the “Binding to Pim-1 by SPR (Biacore)” value in experiment [1] is reported as “bound Pim-1 in a concentration-dependent manner”. Moreover, in experiment [2], the “Mode of inhibition of Pim kinases (Lineweaver-Burk)” value is “ATP competitive manner”. Besides, the “Percentage of cells in G1 phase” value was 55% in experiment [3] (PC-3, 0.3 µM) and 65% in experiment [3] (PC-3, 1 µM).
